The conditions of data set [1]: reagent table, cited from earlier work.
Data set [2] is described as follows: Average particle size and PDI of paliperidone after wet grinding (nanonization). The class given is physicochemical. The procedure: Active pharmaceutical ingredient: stabilizer = 5:1. The ball mill speed was 400 r·min^-1, the grinding media was 0.2 mm of zirconia beads with a volume of 20 mL, and the grinding time was 50 min. The effects of stabilizer types Poloxamer 188 (P188), Tween 80, Poloxamer 407 (P407), SDS, HPMC on the average particle size and PDI (PDI is a dimensionless value reflecting the width of particle size distribution, ranging from 0 to 1, a smaller value indicates a more uniform and narrower particle size distribution) of the active pharmaceutical ingredient after grinding are investigated. Table 29 Effects of different stabilizers on average particle size and PDI
Active pharmaceutical ingredient: stabilizer = 5:1. The ball mill speed was 400 r·min^-1, Poloxamer 188 was used as the stabilizer, the grinding media was 20 mL, and the grinding time was 50 min. The effects of 0.1 mm, 0.2 mm, and 0.3 mm zirconia beads on the average particle size and PDI of the active pharmaceutical ingredient after grinding were investigated. Table 30 Effects of different types of grinding media on average particle size and PDI
Active pharmaceutical ingredient: stabilizer = 5:1. The ball mill speed was 400 r·min^-1, Poloxamer 188 was used as the stabilizer, the grinding media was 0.1 mm zirconia beads. The effects of grinding time for 15 min, 25 min, 35 min, 45 min, 50 min, 60 min on the average particle size and PDI of the active pharmaceutical ingredient after grinding were investigated. Table 31 Effects of different grinding time on average particle size and PDI

Setting [3] is: stabilizer HPMC, 0.2 mm zirconia beads, grinding 50 min.
Setting [4] is: stabilizer P188, 0.1 mm zirconia beads, grinding 15 min.
The mark [5] stands for this setting: stabilizer P188, 0.1 mm zirconia beads, grinding 25 min.
Setting [6] is: stabilizer P188, 0.1 mm zirconia beads, grinding 35 min.
Where [7] appears, read: stabilizer P188, 0.1 mm zirconia beads, grinding 45 min.
The mark [8] stands for this setting: stabilizer P188, 0.1 mm zirconia beads, grinding 50 min.
The mark [9] stands for this setting: stabilizer P188, 0.1 mm zirconia beads, grinding 60 min.
[10] abbreviates: stabilizer P188, 0.2 mm zirconia beads, grinding 50 min.
Setting [11] is: stabilizer P188, 0.3 mm zirconia beads, grinding 50 min.
The mark [12] stands for this setting: stabilizer P407, 0.2 mm zirconia beads, grinding 50 min.
Where [13] appears, read: stabilizer SDS, 0.2 mm zirconia beads, grinding 50 min.
[14] abbreviates: stabilizer Tween, 0.2 mm zirconia beads, grinding 50 min.

Like-named read-outs stand apart in the source and are kept apart here.

Turning to `C#C[C@]1(O)C=C[C@H]2[C@@H]3CCC4=CC(=O)CC[C@@H]4[C@H]3CC[C@@]21CC` [Gestodene], in data set [1] (in water), the solubility entry was “Gestodene (purity 98%), molecular weight: 310.43, insoluble in water”.

Take `N[C@@H](Cc1cc(I)c(Oc2cc(I)c(O)c(I)c2)c(I)c1)C(=O)O` [levothyroxine sodium]: in data set [1], the solubility entry is “levothyroxine sodium (purity 99%), molecular weight: 800.87, solubility: 150 µg/ml”.

For `Cc1nc2n(c(=O)c1CCN1CCC(c3noc4cc(F)ccc34)CC1)CCCC2O` (stereo not shown) [Paliperidone], the solubility result in data set [1] is “Paliperidone (purity 98%), molecular weight: 426.48, solubility: 30 µg/ml”. Further, the Average particle size in data set [2] (setting [3]) turned out to be 330 nm; in data set [2] (setting [4]), 820 nm; in data set [2] (setting [5]) it was 646 nm; in data set [2] (setting [6]), 430 nm; in data set [2] (setting [7]) it was 246 nm; in data set [2] (setting [8]), 220 nm. The Average particle size in data set [2] (setting [9]) is reported as 253 nm; in data set [2] (setting [10]) it was 240 nm; in data set [2] (setting [11]), 420 nm; in data set [2] (setting [12]), 417 nm; in data set [2] (setting [13]) it was 320 nm; in data set [2] (setting [14]) it was 250 nm. The PDI is reported as 0.18 in data set [2] (setting [3]); 0.13 in data set [2] (setting [4]); 0.14 in data set [2] (setting [5]); 0.09 in data set [2] (setting [6]); 0.08 in data set [2] (setting [7]); 0.06 in data set [2] (setting [8]). Besides, the PDI is 0.12 in data set [2] (setting [9]); 0.15 in data set [2] (setting [10]); 0.25 in data set [2] (setting [11]); 0.26 in data set [2] (setting [12]); 0.21 in data set [2] (setting [13]); 0.07 in data set [2] (setting [14]).

Turning to `CC(=O)O[C@H]1C(=O)[C@@]2(C)[C@H]([C@H](OC(=O)c3ccccc3)[C@]3(O)C[C@H](OC(=O)[C@H](O)[C@@H](NC(=O)c4ccccc4)c4ccccc4)C(C)=C1C3(C)C)[C@]1(OC(C)=O)CO[C@@H]1C[C@@H]2O` [Paclitaxel], the solubility result in data set [1] (in water) is given as “Paclitaxel (purity 99%), molecular weight: 853.92, insoluble in water”.

The record behind these values is EP4778511A1, “PHARMACEUTICAL COMPOSITION, DRUG-LOADED ROD CORE, IMPLANT, PREPARATION METHOD THEREFOR, AND USE THEREOF” (SHENYANG XINGHUA PHARMACEUTICAL TECHNOLOGY CO., LTD, priority 2023, dated 2025).
